Data: DBAASP
In brackets after ≈: the same amount, converted by molar mass. Several values for one entry are separate records, joined by “and”; a condition that tells them apart may be missing. Identical values can stand only once. Blank lines part the entries; values can stand above or below the compound they belong to.

Experiments:
Assay in all cases: ≥ marks a high value that may be exact or a test limit, other limits are often not marked, values filed in µg/mL are converted to µM
Escherichia coli D31 = test system: Escherichia coli D31
[1] = test system: Micrococcus luteus DSM 20030
[2] = test system: Candida albicans ATCC 90028
[3] = test system: Candida glabrata ATCC 90030
Candida krusei ATCC 6258 = test system: Candida krusei ATCC 6258
[4] = test system: Enterobacter cloacae ATCC 13047
[5] = test system: Enterococcus faecalis ATCC 29212
[6] = test system: Enterococcus faecalis ATCC 4028
[7] = test system: Escherichia coli ATCC 25922
[8] = test system: Pseudomonas aeruginosa ATCC 27853
[9] = test system: Staphylococcus aureus ATCC 29213
[10] = test system: Staphylococcus aureus ATCC 33591
[11] = test system: Staphylococcus aureus S015
[12] = test system: Staphylococcus epidermidis ATCC 12228
[13] = test system: Bacillus subtilis ATCC 11774
[14] = test system: Enterococcus faecalis FA2-2
[15] = test system: Enterococcus faecalis OG1X
[16] = test system: Escherichia coli ATCC 12014
[17] = test system: Porphyromonas gingivalis ATCC 33277
[18] = test system: Pseudomonas aeruginosa ATCC 10145
[19] = test system: Salmonella enterica subsp. enterica serovar Typhimurium ATCC BAA-215
[20] = test system: Staphylococcus aureus ATCC 6538
Streptococcus gordonii = test system: Streptococcus gordonii
[21] = test system: Cronobacter sakazakii DPC 6440
[22] = test system: Listeria monocytogenes LO28
[23] = test system: Salmonella enterica subsp. enterica serovar Typhi DMST 22842
[24] = test system: Staphylococcus aureus ATCC 25923
Vibrio cholerae non-O139 = test system: Vibrio cholerae non-O139
Vibrio cholerae non-O1 = test system: Vibrio cholerae non-O1
Aspergillus nidulans = test system: Aspergillus nidulans
Candida albicans = test system: Candida albicans
Escherichia coli = test system: Escherichia coli
Staphylococcus aureus = test system: Staphylococcus aureus
[25] = test system: Staphylococcus aureus ATCC 25023

SMILES: CC[C@H](C)[C@H](NC(=O)[C@H](CC(C)C)NC(=O)CNC(=O)CNC(=O)[C@@H](NC(=O)[C@H](CC(C)C)NC(=O)[C@H](CO)NC(=O)[C@@H]1CCCN1C(=O)[C@@H](NC(=O)[C@H](CC(C)C)NC(=O)[C@H](CO)NC(=O)[C@H](Cc1ccccc1)NC(=O)[C@@H](N)Cc1ccccc1)[C@@H](C)CC)C(C)C)C(=O)N[C@@H](CO)C(=O)N[C@@H](C)C(=O)N[C@@H](Cc1ccccc1)C(=O)N[C@@H](CCCCN)C(N)=O [FFSLIPSLVGGLISAFK]
MIC [2]: ≥ 34.8 µM
MIC [3]: ≥ 69.5 µM
MIC (Candida krusei ATCC 6258): ≥ 69.5 µM
MIC [4]: ≥ 150 µM
MIC [5]: > 139 µM
MIC [6]: ≥ 150 µM
MIC [7]: > 139 µM
MIC [8]: > 150 µM
MIC [9]: 8.68 µM and 9.37 µM
MIC [10]: 17.4 µM (≈ 31.2 µg/mL)
MIC [11]: ≥ 139 µM
MIC [12]: 9.38 µM and 9.37 µM

SMILES: CC[C@H](C)[C@H](NC(=O)[C@H](CCCCN)NC(=O)[C@H](CCC(=O)O)NC(=O)[C@H](CCCCN)NC(=O)[C@H](CO)NC(=O)[C@H](CCCCN)NC(=O)[C@@H](N)CCCN=C(N)N)C(=O)NCC(=O)N[C@@H](CCCCN)C(=O)N[C@@H](CCC(=O)O)C(=O)N[C@@H](Cc1ccccc1)C(=O)N[C@@H](CCCCN)C(=O)N[C@@H](CCCN=C(N)N)C(=O)N[C@H](C(=O)N[C@H](C(=O)N[C@@H](CCC(N)=O)C(=O)N[C@@H](CCCN=C(N)N)C(=O)N[C@H](C(=O)N[C@@H](CCCCN)C(=O)N[C@@H](CC(=O)O)C(=O)N[C@@H](Cc1ccccc1)C(=O)O)[C@@H](C)CC)C(C)C)[C@@H](C)CC [RKSKEKIGKEFKRIVQRIKDF]
MIC [13]: 0.038 µM (≈ 0.1 µg/mL)
MIC [14]: 4.75 µM (≈ 12.5 µg/mL)
MIC [15]: 19 µM (≈ 50 µg/mL)
MIC [16]: 0.152 µM (≈ 0.4 µg/mL)
MIC [17]: 4.75 µM (≈ 12.5 µg/mL)
MIC [18]: ≥ 38 µM
MIC [19]: 19 µM (≈ 50 µg/mL)
MIC [20]: 19 µM (≈ 50 µg/mL)
MIC (Streptococcus gordonii): 2.37 µM (≈ 6.25 µg/mL)

SMILES: NC(=O)[C@H](Cc1c[nH]c2ccccc12)NC(=O)[C@H](Cc1c[nH]c2ccccc12)NC(=O)[C@H](CCCN=C(N)N)NC(=O)[C@H](CCCN=C(N)N)NC(=O)[C@H](Cc1c[nH]c2ccccc12)NC(=O)[C@H](Cc1c[nH]c2ccccc12)NC(=O)[C@H](CCCN=C(N)N)NC(=O)[C@H](Cc1c[nH]c2ccccc12)NC(=O)[C@H](Cc1c[nH]c2ccccc12)NC(=O)[C@@H](N)CCCN=C(N)N [RWWRWWRRWW]
MIC [7]: > 51.7 µM
MIC [8]: 26.1 µM (≈ 46 µg/mL)
MIC [23]: ≥ 51.7 µM
MIC [24]: > 51.7 µM
MIC [12]: > 51.7 µM
MIC (Vibrio cholerae non-O139): 13.1 µM (≈ 23 µg/mL)
MIC (Vibrio cholerae non-O1): 13.1 µM (≈ 23 µg/mL)

SMILES: CC(C)C[C@H](NC(=O)[C@H](CC(C)C)NC(=O)[C@H](CC(C)C)NC(=O)[C@H](CC(C)C)NC(=O)[C@H](CC(C)C)NC(=O)[C@H](CCCCN)NC(=O)[C@H](CC(C)C)NC(=O)[C@@H](N)CCCN=C(N)N)C(=O)N[C@@H](CCCN=C(N)N)C(=O)N[C@@H](Cc1c[nH]c2ccccc12)C(N)=O [RLKLLLLLRW]
MIC [25]: 3.02 µM (≈ 4 µg/mL)

Further lines, results first:

MIC (Escherichia coli D31): ≥ 100 µM
MIC [1]: ≥ 100 µM
SMILES: CC[C@H](C)[C@H](NC(=O)[C@H](Cc1c[nH]c2ccccc12)NC(=O)[C@@H](N)CO)C(=O)N[C@@H](CCCCN)C(=O)N[C@@H](CCCCN)C(=O)N[C@@H](CC(=O)O)C(=O)N[C@@H](CCCCN)C(=O)N[C@@H](Cc1ccccc1)C(=O)N1CCC[C@H]1C(=O)N[C@@H](CO)C(=O)N[C@@H](CO)C(=O)N[C@H](C(=O)NCC(=O)N1CCC[C@H]1C(=O)N[C@@H](Cc1ccc(O)cc1)C(=O)N[C@@H](CC(N)=O)C(=O)N1CCC[C@H]1C(=O)N[C@@H](CC(N)=O)C(=O)N1CCC[C@H]1C(=O)N1CCC[C@H]1C(=O)N1CCC[C@H]1C(=O)N1CCC[C@H]1C(=O)N[C@@H](CCCN=C(N)N)C(=O)N[C@@H](Cc1ccccc1)C(=O)O)[C@@H](C)O [SWIKKDKFPSSTGPYNPNPPPPRF]

MIC [21]: ≥ 39.1 µM
MIC [22]: ≥ 39.1 µM
SMILES: CC[C@H](C)[C@H](NC(=O)[C@@H](NC(=O)[C@H](CCCCN)NC(=O)[C@@H](NC(=O)[C@H](CCCCN)NC(=O)[C@@H]1CCCN1C(=O)[C@H](CCC(N)=O)NC(=O)[C@H](C)NC(=O)[C@@H](N)Cc1c[nH]c2ccccc12)[C@@H](C)O)C(C)C)C(=O)N1CCC[C@H]1C(=O)N[C@@H](Cc1ccc(O)cc1)C(=O)N[C@H](C(=O)N[C@@H](CCCN=C(N)N)C(=O)N[C@@H](Cc1ccc(O)cc1)C(=O)N[C@@H](CC(C)C)C(=O)O)C(C)C [WAQPKTKVIPYVRYL]

MIC (Aspergillus nidulans): 21.9 µM (≈ 35.4 µg/mL)
MIC (Candida albicans): 11 µM (≈ 17.7 µg/mL)
MIC (Escherichia coli): > 125 µM
MIC (Staphylococcus aureus): > 125 µM
SMILES: CC[C@H](C)[C@H](NC(=O)[C@H](CO)NC(=O)[C@@H]1CCCN1C(=O)[C@H](CCCN=C(N)N)NC(=O)[C@H](Cc1c[nH]c2ccccc12)NC(=O)[C@H](Cc1c[nH]c2ccccc12)NC(=O)[C@H](Cc1ccc(O)cc1)NC(=O)[C@H](CCC(N)=O)NC(=O)[C@H](CCCCN)NC(=O)[C@H](CC(C)C)NC(=O)[C@@H]1CCCN1C(=O)[C@@H](N)Cc1cnc[nH]1)C(=O)O [HPLKQYWWRPSI]
